Source: the supplement of paper PMC6045584
± gives the standard deviation of the averaged measurements.

Key:
FORETINIB = compound: COc1cc2c(Oc3ccc(NC(=O)C4(C(=O)Nc5ccc(F)cc5)CC4)cc3F)ccnc2cc1OCCCN1CCOCC1 [FORETINIB]; assay: surviving fraction relative to DMSO-only wells; higher = less growth inhibition; settings: exposure time: 5 days
Outline: (§1)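 Inhibitors at 0.5, 1, 5, 10, 50, 100, 500 and 1000 nM were applied continuously for five days to tumour cell lines seeded in log phase at 250–500 cells per well in 384-well plates 24 hours earlier. Viability was measured by CellTiter-Glo luminescence and expressed as surviving fraction relative to the median of DMSO-only wells. Luminescence was taken after 10 minutes at room temperature.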

[1] = compound: CNCc1ccc(-c2[nH]c3cc(F)cc4c3c2CCNC4=O)cc1; assay: as above; settings: exposure time: 5 days
Outline: as §1

Test System | surviving fraction (FORETINIB; 0.5 nM) | surviving fraction (FORETINIB; 1 nM) | surviving fraction (FORETINIB; 5 nM) | surviving fraction (FORETINIB; 10 nM) | surviving fraction (FORETINIB; 50 nM) | surviving fraction (FORETINIB; 100 nM) | surviving fraction (FORETINIB; 500 nM) | surviving fraction (FORETINIB; 1000 nM) | surviving fraction ([1]; 0.5 nM) | surviving fraction ([1]; 1 nM) | surviving fraction ([1]; 5 nM) | surviving fraction ([1]; 10 nM) | surviving fraction ([1]; 50 nM) | surviving fraction ([1]; 100 nM) | surviving fraction ([1]; 500 nM) | surviving fraction ([1]; 1000 nM)
MG63 BONE | 1.05 ± 0.012 | 1.07 ± 0.048 | 1.09 ± 0.043 | 1.11 ± 0.05 | 0.901 ± 0.037 | 0.817 ± 0.026 | 0.567 ± 0.015 | 0.322 ± 0.02 | 1.03 ± 0.052 | 1.04 ± 0.032 | 1.05 ± 0.034 | 1.06 ± 0.058 | 1.03 ± 0.03 | 1.02 ± 0.028 | 0.975 ± 0.031 | 0.938 ± 0.023
MHM BONE | 1.04 ± 0.015 | 1.01 ± 0.012 | 1.05 ± 0.015 | 1.08 ± 0.026 | 1.03 ± 0.017 | 0.973 ± 0.0092 | 0.859 ± 0.026 | 0.8 ± 0.016 | 1.02 ± 0.025 | 1.02 ± 0.035 | 1.05 ± 0.015 | 1.06 ± 0.051 | 1.06 ± 0.039 | 1.074 ± 0.0062 | 1.09 ± 0.022 | 1.07 ± 0.041
NCIH441 LUNG | 1.11 ± 0.021 | 1.09 ± 0.063 | 1.1 ± 0.038 | 1 ± 0.079 | 0.983 ± 0.026 | 0.932 ± 0.065 | 0.807 ± 0.04 | 0.655 ± 0.066 | 1.06 ± 0.08 | 0.973 ± 0.12 | 1.09 ± 0.064 | 1.01 ± 0.06 | 0.992 ± 0.051 | 0.809 ± 0.022 | 0.996 ± 0.022 | 0.923 ± 0.1
NOS1 BONE | 1.12 ± 0.43 | 1.04 ± 0.052 | 1 ± 0.063 | 0.98 ± 0.099 | 0.79 ± 0.058 | 0.749 ± 0.028 | 0.28 ± 0.039 | 0.114 ± 0.0078 | 1.01 ± 0.042 | 1.08 ± 0.23 | 1.06 ± 0.13 | 0.919 ± 0.11 | 0.795 ± 0.1 | 0.798 ± 0.11 | 0.632 ± 0.049 | 0.602 ± 0.036
